This note sets out measurements from ChEMBL document CHEMBL1275370, “The binding of β-d-glucopyranosyl-thiosemicarbazone derivatives to glycogen phosphorylase: A new class of inhibitors” (Bioorg Med Chem, 2010).

The assay concerns the target T1, Glycogen phosphorylase, muscle form (Oryctolagus cuniculus, UniProt P00489).
T1 sequence (P00489 whole entry): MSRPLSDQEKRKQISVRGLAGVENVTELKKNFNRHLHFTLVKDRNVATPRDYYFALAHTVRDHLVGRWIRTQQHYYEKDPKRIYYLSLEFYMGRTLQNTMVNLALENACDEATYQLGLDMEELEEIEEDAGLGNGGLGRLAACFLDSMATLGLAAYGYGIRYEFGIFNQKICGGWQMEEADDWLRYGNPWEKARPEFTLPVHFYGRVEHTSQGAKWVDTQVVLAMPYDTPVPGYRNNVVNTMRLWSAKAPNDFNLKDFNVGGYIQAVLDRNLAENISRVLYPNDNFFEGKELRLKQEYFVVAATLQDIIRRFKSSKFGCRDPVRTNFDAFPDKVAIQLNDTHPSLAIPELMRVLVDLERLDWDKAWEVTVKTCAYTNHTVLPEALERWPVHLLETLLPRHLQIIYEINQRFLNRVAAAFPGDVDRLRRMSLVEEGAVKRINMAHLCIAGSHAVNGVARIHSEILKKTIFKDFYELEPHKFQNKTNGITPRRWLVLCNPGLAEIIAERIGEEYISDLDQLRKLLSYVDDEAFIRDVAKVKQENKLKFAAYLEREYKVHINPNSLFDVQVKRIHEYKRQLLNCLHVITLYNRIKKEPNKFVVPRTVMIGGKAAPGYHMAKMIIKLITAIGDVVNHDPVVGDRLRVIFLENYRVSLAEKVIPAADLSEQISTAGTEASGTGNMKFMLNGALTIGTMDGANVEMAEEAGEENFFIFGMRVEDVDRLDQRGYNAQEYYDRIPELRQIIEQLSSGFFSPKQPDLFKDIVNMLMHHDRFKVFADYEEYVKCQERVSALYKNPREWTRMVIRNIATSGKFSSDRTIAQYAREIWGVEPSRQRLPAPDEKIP
Description: Inhibition of rabbit skeletal muscle glycogen phosphorylase b

For the compound `CC[C@H]1O[C@@H](NC(=S)N/N=C/c2ccccc2O)[C@H](O)[C@@H](O)[C@@H]1O`, the IC50 came out at 26.6 µM.
In turn, `CC[C@H]1O[C@@H](NC(=S)N/N=C/c2ccccc2[N+](=O)[O-])[C@H](O)[C@@H](O)[C@@H]1O` came in with an IC50 of 484 µM.
To `CC[C@H]1O[C@@H](NC(=S)N/N=C/c2ccc(OC)cc2)[C@H](O)[C@@H](O)[C@@H]1O` belongs 406 µM; to `CC[C@H]1O[C@@H](NC(=S)N/N=C/c2ccc([N+](=O)[O-])cc2)[C@H](O)[C@@H](O)[C@@H]1O`, 25.7 µM; to `CC[C@H]1O[C@@H](NC(=S)N/N=C/c2cccc(O)c2)[C@H](O)[C@@H](O)[C@@H]1O`, 180 µM.
The same measure for `CC[C@H]1O[C@@H](NC(=S)N/N=C/c2ccc(O)cc2)[C@H](O)[C@@H](O)[C@@H]1O`: 340 µM; for `CC[C@H]1O[C@@H](NC(=S)N/N=C/c2ccc(Br)cc2)[C@H](O)[C@@H](O)[C@@H]1O`: 93.2 µM.
The same measure for `CC[C@H]1O[C@@H](NC(=S)N/N=C/c2cccc(Cl)c2)[C@H](O)[C@@H](O)[C@@H]1O`: 23.2 µM; for `CC[C@H]1O[C@@H](NC(=S)N/N=C/c2ccc(C)cc2)[C@H](O)[C@@H](O)[C@@H]1O`: 192 µM; for `CC[C@H]1O[C@@H](NC(=S)N/N=C/c2ccccc2Cl)[C@H](O)[C@@H](O)[C@@H]1O`: 370 µM.
With `CC[C@H]1O[C@@H](NC(=S)N/N=C/c2ccncc2)[C@H](O)[C@@H](O)[C@@H]1O`, inhibition was half-maximal at 200 µM (IC50). Against the preceding compound, the IC50 is about 1.9-fold lower.
The compound `CC[C@H]1O[C@@H](NC(=S)N/N=C/c2ccc(C(F)(F)F)cc2)[C@H](O)[C@@H](O)[C@@H]1O` returned an IC50 of 524 µM.

As a reminder, the IC50 is the concentration that inhibits the measured activity by half. A low value points to greater potency.
